Laboratory results reported in paper PMC6283615, “Anilinoquinoline based inhibitors of trypanosomatid proliferation” (PLoS Neglected Tropical Diseases, 2018).
Converted amounts (≈) assume the structure as drawn.

Tests used:
[1] = Aqueous solubility; assay type: physicochemical
[2] = system: T. vivax STIB 719 / ILRAD 560; assay: Ex vivo drug sensitivity assay for T. vivax (48 h); assay type: cell-based; conditions: Trypanosoma vivax, STIB719, 48 h
Experimental: Ex vivo drug sensitivity assay for T. vivax (48 h): Compounds were tested ex vivo against the STIB 719 / ILRAD 560 T. vivax (drug sensitive) strain which originated from the Y486 strain, isolated from a naturally infected bovine in 1976 in Zaria, Nigeria. Compounds were assayed in at least three separate, independent experiments and an 11-point dilution curve was used to determine the EC50 values. Bloodstream form trypanosomes were harvested from a highly parasitaemic mouse (via cardiac puncture) and were incubated with test compounds for 45 h at 37°C in a humidified atmosphere containing 5% CO2, supported in HMI-9 medium containing 20% bovine serum. Thereafter, Resazurin dye was added to monitor trypanosome viability as described in the preceding section.

[3] = LogD7.4; assay type: physicochemical; conditions: pH 7.4
[4] = system: T. congolense IL3000; assay: In vitro drug sensitivity assay for T. congolense (72 h); assay type: cell-based; conditions: Trypanosoma congolense, IL3000 strain
Experimental: In vitro drug sensitivity assay for T. congolense (72 h): Compounds were tested in vitro for efficacy against the IL3000 T. congolense (drug sensitive) strain which was originally derived from the Trans Mara I strain, isolated from a bovine in 1966 in Kenya. […] Compounds were assayed in at least three separate, independent experiments and an 11-point dilution curve was used to determine the EC50 values. Bloodstream form trypanosomes were supported in HMI-9 medium containing 20% bovine serum and were incubated with test compounds for 69 h at 34°C in a humidified atmosphere containing 5% CO2. Thereafter, 10 μL of Resazurin dye (12.5 mg in 100 mL of phosphate-buffered saline, Sigma-Aldrich, Buchs, Switzerland) was added for an additional 3 h. Plates were read using a fluorescence plate reader (Spectramax, Gemini XS, Bucher Biotec, Basel, Switzerland) using an excitation wavelength of 536 nm and an emission wavelength of 588 nm.

[5] = system: L. major amastigote; assay: L. major intracellular amastigote luciferase assay in RAW 264.7 macrophages; assay type: cell-based, Leishmania major; conditions: Leishmania major, RAW264.7; intracellular amastigotes in RAW 264.7 macrophages, 96 h
Summary of the method: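 Murine RAW 264.7 macrophages were infected overnight with luciferase-expressing L. major metacyclic promastigotes (MOI 1:10). Non-internalized parasites were washed off before 96 h compound exposure (0.5–10,000 ng/mL) at 37°C, 5% CO2.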

[6] = system: T. cruzi amastigote (Tulahuen strain expressing β-galactosidase); assay: Intracellular T. cruzi assay in 3T3 cells (beta-galactosidase, 96 h); assay type: cell-based, Trypanosoma cruzi; conditions: for EC50: Trypanosoma cruzi, TULAHUEN, NIH3T3, 96 h, read-out: T. cruzi amastigote EC50
Summary of the method: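 3T3 cells in phenol-red-free DMEM with 2% FBS were infected with Tulahuen β-galactosidase trypomastigotes, 5×10^4 per well, and exposed to compounds from 50 μM in 1:2 serial dilutions, in triplicate. After 96 h at 37°C, 5% CO2, 500 μM CPRG in PBS with 0.5% NP40 was added for 4 h; absorbance was read at 590–595 nm.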

| Structure (SMILES) | solubility [1] [µM] | EC50 [2] [nM] | logD [3] | EC50 [4] [nM] | EC50 [5] [nM] | EC50 [6] [nM] | SI (T. cruzi) ([6]; selectivity index calculated relative to 3T3 cells) | LogD7.4 [3] |
| --- | --- | --- | --- | --- | --- | --- | --- | --- |
| CN1CCN(c2ncc(-c3ccc4c(Nc5ccc(OCc6cccc(F)c6)c(Cl)c5)ccnc4c3)cn2)CC1 [Compound 14] | < 1 | 200 | 3.4 | 160 | 1500 | 90 | 170 | – |
| CN1CCN(c2ncc(-c3ccc4c(Nc5cnccn5)ccnc4c3)cn2)CC1 [Compound 22] | 44 (≈ 17.5 µg/mL) | 720 | – | 50 | 2500 | 6000 | – | 3.3 |
